Reference: US20240100018A1, “COMPOUNDS FOR THE TREATMENT OF A DISEASE OR DISORDER, METHODS FOR IDENTIFYING SAID COMPOUNDS” (priority 2021, published 2024)
“Also recorded” adds a separate entry of the source. Where a name gives a salt, the structure may show the parent alone. Read-outs that look alike come from different tables or passages of the source.

Experiments:
[1] = test system: HEK293T cells transfected with ACE2 and TMPRSS2, SARS-CoV-2 spike-mediated cell fusion; assay: cells; type: cell-based, human
[2] = test system: SARS-CoV-2 Isolate USA-WA1/2020; assay: In vitro viral inhibition assay in Vero-E6 cells (spike immunofluorescence); type: cell-based
Vero-E6 cells [3] = assay: Toxicity by reduced cell count in the viral inhibition assay; conditions: for host cell toxicity (reduced cell count): concentration not given
Covid-19 = conditions: in vivo; cited from earlier work
[4] = human, in vivo; cited from earlier work
[5] = test system: Calu-3 lung cancer cells, SARS-CoV-2 spike-mediated cell fusion; type: cell-based, human
Vero-E6 cells [6] = test system: Vero-E6 cells
[7] = HEK293 syncytia assay, dose-response
[8] = summary call Active / Not Tested, cell line not given
[9] = summary call Active / Not Tested

Compound: CN(C)CCC(c1ccc(Br)cc1)c1ccccn1 (centres unmarked) [brompheniramine, Brompheniramine]
- cell loss / cytotoxicity (total GFP) (HEK293 cells; [7]): did not mirror cell loss
- inhibition of syncytia formation (cell fusion) [1]: impaired viral entry; also recorded: to a lesser extent, brompheniramine, showed dose-responsive inhibition of syncytia formation; also recorded: inhibited syncytia formation
- Syncytia Assay [1, 8]: Active

Compound: O=C1[C@H](CC[C@H](O)c2ccc(F)cc2)[C@@H](c2ccc(O)cc2)N1c1ccc(F)cc1 [ezetimibe, Ezetimibe]
- activity in the cell fusion assay [1]: inactive
- inhibition of syncytia formation (cell fusion) [1]: impaired viral entry; also recorded: had inhibitory activity in the cell fusion assay; also recorded: inhibited both viral infection and cell fusion
- potency in the cell fusion assay relative to the viral infection assay [1]: lower potency in the cell fusion assay
- Syncytia Assay [1, 8]: Active
- reduction of spike protein-expressing populations ([2]; 25 μM (highest concentration studied), Vero-E6): reduced spike protein-expressing populations only at the highest concentration studied
- Viral Entry Assay [2, 9]: Active
- cell numbers (Vero-E6 cells [3]; 25 μM, Vero-E6): reduction in cell numbers was also observed

Compound: COCCCC/C(=N\OCCN)c1ccc(C(F)(F)F)cc1 [fluvoxamine]
- decrease of Covid-19 deaths (Covid-19): 90%

Compound: CCCCCCc1ccc(O)cc1O [hexylresorcinol, Hexylresorcinol]
- cell loss / cytotoxicity (total GFP) (HEK293 cells; [7]): mirrored by cell loss
- Syncytia Assay [1, 8]: Active

Compound: CN(C)CCCN1c2ccccc2CCc2ccccc21 [imipramine, Imipramine hydrochloride]
- Syncytia Assay [1]: Active
- inhibition of syncytia formation (cell fusion) ([1]; hydrochloride): impaired viral entry; also recorded: inhibited syncytia formation

Compound: C[C@]1(O)C[C@@H](c2nc(-c3ccc4ccc(-c5ccccc5)nc4c3)c3c(N)nccn32)C1 [linsitinib, Linsitinib]
- inhibition of syncytia formation (cell fusion) [1]: impaired viral entry; also recorded: particularly effective; also recorded: most potent agent; also recorded: dose-responsive inhibition of syncytia formation; also recorded: complete inhibition of cell fusion; also recorded: substantially reduced spike-protein-dependent syncytia formation
- EC50 ([1]; Homo sapiens, HEK-293T, cell fusion (syncytia) assay): 25 µM
- inhibition of syncytia formation (cell fusion) ([1]; listed as Linsitinib): highest inhibitory activity
- inhibition of syncytia formation (cell fusion) ([1]; listed as linisitinib): highest inhibitory activity
- Syncytia Assay [1, 8]: Active
- Cmax [4]: 5 to 10 µM

Compound: N=C(N)c1ccc2cc(OC(=O)c3ccc(N=C(N)N)cc3)ccc2c1 [nafamostat]
- cell loss / cytotoxicity (total GFP) (HEK293 cells; [7]): did not mirror cell loss
- inhibition of syncytia formation (cell fusion) [5]: prevented syncytia formation

Compound: CC(=O)c1c(O)c(C)c(O)c(Cc2c(O)c3c(c(C(=O)/C=C/c4ccccc4)c2O)OC(C)(C)C=C3)c1O [rottlerin, Rottlerin]
- antiviral activity / inhibition of SARS-CoV-2 infection in Vero-E6 cells ([2]; […], concentration not stated, listed as Rottlerin): inhibited viral infection
- Viral Entry Assay [2, 9]: Active
- host cell toxicity (reduced cell count) (Vero-E6 cells [3]; Vero-E6): dose-limiting toxicity
- host cell toxicity (reduced cell count) (Vero-E6 cells [3]; Vero-E6, listed as R077): dose-limiting toxicity as evidenced by reduced cell count

Compound: OCc1cc(C(O)CNCCCCCCOCCCCc2ccccc2)ccc1O (centres unmarked) [salmeterol, Salmeterol]
- cell loss / cytotoxicity (total GFP) (HEK293 cells): mirrored by cell loss
- inhibition of syncytia formation (cell fusion) [5]: not borne out by syncytia formation experiments with either HEK293T or Calu-3 cells, except at high concentration
- Syncytia Assay [1]: Active
- inhibition of syncytia formation (cell fusion) [1]: had inhibitory activity in the cell fusion assay and full and not borne out by syncytia formation experiments with either HEK293T or Calu-3 cells, except at high concentration
- potency in the cell fusion assay relative to the viral infection assay [1]: at least two orders of magnitude less potent
- Viral Entry Assay [2]: Active
- antiviral activity / inhibition of SARS-CoV-2 infection in Vero-E6 cells [2]: exhibited antiviral activities; also recorded: prevented viral infection; also recorded: particularly strong inhibitory activities; also recorded: particularly effective; also recorded: can block in vitro SARS-CoV-2 replication at clinically relevant concentrations
- antiviral effect on spike-expressing cell population [2]: reduced the median of the spike-expressing population; also recorded: greater antiviral effect on the entire population
- spike-positive cells [2]: ~14%
- host cell toxicity (reduced cell count) (Vero-E6 cells [6]): without apparent host cell toxicity

Compound: Cc1cc(C)c(/C=C2\C(=O)Nc3ccccc32)[nH]1 [semaxanib, Semaxanib]
- Syncytia Assay [1, 8]: Active

Compound: CO[C@H]1C[C@@H]2CC[C@@H](C)[C@@](O)(O2)C(=O)C(=O)N2CCCC[C@H]2C(=O)O[C@H]([C@H](C)C[C@@H]2CC[C@@H](OC(=O)C(C)(CO)CO)[C@H](OC)C2)CC(=O)[C@H](C)/C=C(\C)[C@@H](O)[C@@H](OC)C(=O)[C@H](C)C[C@H](C)/C=C/C=C/C=C/1C [temsirolimus, Temsirolimus]
- antiviral activity / inhibition of SARS-CoV-2 infection in Vero-E6 cells ([2]; […], concentration not stated): Qualitatively similar results to salmeterol
- Viral Entry Assay [2, 9]: Active

Compound: CCC(=O)N1CCN(c2ccc(-n3c(=O)ccc4cnc5ccc(-c6cnc7ccccc7c6)cc5c43)cc2C(F)(F)F)CC1 [torin-1, Torin-1]
- antiviral activity / inhibition of SARS-CoV-2 infection in Vero-E6 cells ([2]; […], concentration not stated): Qualitatively similar results to salmeterol
- Viral Entry Assay [2, 9]: Active
- toxicity (Vero-E6 cells [3]; 100 nM): toxic
- host cell toxicity (reduced cell count) (Vero-E6 cells [6]): dose-limiting toxicity as evidenced by reduced cell count

Compound: Dec-RVKR-CMK
- cell loss / cytotoxicity (total GFP) (HEK293 cells; [7]): did not mirror cell loss
- inhibition of syncytia formation (cell fusion) ([5]; Calu-3 acceptor cells, 1-2 h pretreatment, 4 h co-culture): prevented syncytia formation; also recorded: seemingly larger maximal magnitude of inhibition
- inhibition of syncytia formation (cell fusion) ([1]; HEK293T acceptor cells with ACE2 and TMPRSS2, 1-2 h pretreatment, 4 h co-culture): prevented syncytia formation; also recorded: similarly potent in both cell types; also recorded: dose-responsive inhibition of syncytia formation
